This is an account of results in PubChem BioAssay (NCI).

Common to all, as to assay: NCI-60 cell line screen, 48 h
Assay [1] has as its system SK-OV-3 ovarian.
For assay [2], the system named is U251 CNS.
The test system of assay [3] is HCT-116 colon.
Assay [4] concerns NCI-H23 lung.
The test system of assay [5] is K-562 leukemia.
The subject of assay [6] is OVCAR-3 ovarian.
The test system of assay [7] is NCI-H226 lung.
Assay [8] deals with HT29 colon.
Assay [9] deals with NCI/ADR-RES ovarian.
Assay [10] has as its system HOP-62 NSCLC.

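Method: 48-hour compound exposure of cells in 96-well plates, five concentrations, linear interpolation of endpoints. At the GI50, growth is halved. At the TGI there is no net growth.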

Consider `COc1cccc2nc3ccccc3nc12`, for which the TGI in assay [1], in assay [2], in [3], in [4], in assay [5] and in assay [6] was above 100 µM throughout. The TGI in assay [7], in assay [8], in [9] and in assay [10] was above 100 µM each time.
`CN1CCN(c2ccc(NC(=O)c3cncnc3Nc3ccc(OCc4cccc(F)c4)c(Cl)c3)cc2)CC1`: the GI50 was 10 µM in assay [1]; 1070 nM in [2]; 966 nM in assay [3]; 4010 nM in assay [4]; 799 nM in assay [5]; 3.58 µM in assay [6]. The GI50 is 40900 nM in assay [7], 1100 nM in assay [8], 5.27 µM in assay [9] and 2530 nM in assay [10]. Besides, the TGI is above 50 µM in assay [1]; 2.52 µM in [2]; 2.12 µM in [3]; above 50 µM in assay [4]; 1.83 µM in assay [5]; above 50 µM in assay [6]. For the same compound, the TGI is above 50 µM in [7], 2.65 µM in [8], above 50 µM in [9] and 16.1 µM in [10].
In the case of `COc1cc(/C=C/C(=O)/C=C/c2cc3ccc(Cl)cc3n(Cc3ccccc3)c2=O)ccc1O`, the GI50 in assay [1] is 5.95 µM; in assay [2] it was 1170 nM; in assay [3] it was 768 nM; in assay [4] it was 1790 nM; in assay [5] it was 1890 nM; in [6], 0.71 µM. Moreover, the GI50 in assay [7] is 2020 nM; in [8], 424 nM; in [9], 2.86 µM; in assay [10] it was 2750 nM. Also, the TGI in assay [1] was 57.1 µM; in assay [2], 2.55 µM; in assay [3], 2.15 µM; in assay [4], 4.65 µM; in assay [5], above 100 µM; in [6], 2.43 µM. Besides, the TGI in assay [7] is 4.66 µM; in assay [8], 1.68 µM; in [9], above 100 µM; in [10] it was 7.08 µM.
As to `O=C(CCl)Nc1cc(Cl)c(Cl)cc1Cl`, the TGI in [1] was above 10 µM; in assay [2], 3.94 µM; in [3], 2.94 µM; in assay [4] it was 3.28 µM; in assay [5], above 10 µM; in assay [6] it was 3.31 µM. The TGI in [7] was found to be 2.48 µM; in assay [8], 3.7 µM; in assay [9], 5.31 µM; in assay [10], 3.89 µM.
With `ClCc1ccc(Cn2cnc3c(Cl)ncnc32)cc1`, the GI50 in assay [1] was 20 µM; in assay [2] it was 6400 nM; in assay [3], 10400 nM; in [4] it was 6990 nM; in assay [5], 15400 nM; in assay [6], 8.73 µM. Besides, the GI50 in assay [7] is 12700 nM; in [8] it was above 45000 nM; in assay [9], 10.8 µM; in assay [10], 11000 nM. The TGI is 47.6 µM in [1]; 15.1 µM in assay [2]; 17.4 µM in assay [3]; 17.3 µM in assay [4]; above 63 µM in assay [5]; 18.5 µM in assay [6]. Moreover, the TGI in assay [7] was 28.6 µM; in assay [8] it was above 100 µM; in [9] it was 25.2 µM; in [10] it was 23.7 µM.
Regarding `CCOC(=O)c1c(NC(=O)c2ccccc2)sc2c3c(ccc12)OCN(C)C3`, the GI50 in assay [1] is 2.16 µM; in assay [2], 1680 nM; in assay [3], 1770 nM; in assay [4], 1780 nM; in assay [5], 694 nM; in [6], 1.79 µM. Besides, the GI50 in [7] is 1900 nM; in assay [8] it was 2000 nM; in assay [9] it was 1.59 µM; in [10], 1770 nM. Further, the TGI in assay [1] stood at 4.79 µM; in [2], 3.4 µM; in assay [3], 3.27 µM; in assay [4], 3.78 µM; in [5] it was 5.11 µM; in [6], 3.26 µM. The TGI in assay [7] worked out at 4.14 µM; in [8], 4.25 µM; in assay [9], 3.32 µM; in assay [10], 3.82 µM.
For `COc1ccc(C(=O)O[C@H]2[C@H](O[C@H]3[C@@H](O)COC(O[C@H]4C[C@H]5[C@@H]6CC=C7C[C@@H](O)CC[C@]7(C)[C@H]6CC[C@]5(C)[C@H]4[C@H](C)C(=O)CCC(C)C)[C@@H]3OC(C)=O)OC[C@@H](O)[C@@H]2O)c(C)c1` (stereo not given in full), the GI50 is 0.0246 µM in assay [1]; below 10 nM in assay [2]; below 10 nM in [3]; 57.4 nM in assay [4]; below 10 nM in assay [5]; 11.1 µM in [6]. Besides, the GI50 was 42.3 nM in assay [7], 71.2 nM in assay [8], 8.48 µM in [9] and below 10 nM in assay [10]. Moreover, the TGI stood at 9.5 µM in assay [1]; 18.7 µM in [2]; 15.8 µM in assay [3]; 15.4 µM in assay [4]; 13.9 µM in assay [5]; 28.9 µM in assay [6]. Moreover, the TGI in [7] came to 30.6 µM; in [8] it was 21.6 µM; in assay [9], 86.1 µM; in assay [10], 7.51 µM.
Regarding `C(=Nc1cnc2ccccc2c1)c1ccc2ccccc2n1`, the TGI in assay [1], in assay [2], in [3], in assay [4], in assay [5] and in assay [6] was above 100 µM throughout. Moreover, the TGI in [7], in assay [8], in [9] and in assay [10] was above 100 µM each time.
Regarding `C[C@H](CS)C(=O)N1c2ccccc2C[C@H]1C(=O)O`, the TGI in assay [1], in [2], in assay [3], in assay [4], in assay [5] and in assay [6] was above 100 µM each time. In addition, the TGI in assay [7], in assay [8], in [9] and in [10] was above 100 µM throughout.
